In patent publication US9376429B2, “Sodium channel blockers, preparation method thereof and use thereof” (Daewoong Pharmaceutical Co., Ltd., priority 2012, dated 2016):

What was measured:
[1] = target: T1, sodium ion channel (Nav1.7) (Homo sapiens, UniProt Q15858); assay: Blocking effect against sodium ion channel (Nav1.7), IonFlux16 auto patch clamp, hNav1.7 HEK293 cells; format: cell-based; conditions: peak current after 50 seconds treatment, eight concentrations
T1 construct: host or cells: HEK293
T1 sequence (Q15858 whole entry): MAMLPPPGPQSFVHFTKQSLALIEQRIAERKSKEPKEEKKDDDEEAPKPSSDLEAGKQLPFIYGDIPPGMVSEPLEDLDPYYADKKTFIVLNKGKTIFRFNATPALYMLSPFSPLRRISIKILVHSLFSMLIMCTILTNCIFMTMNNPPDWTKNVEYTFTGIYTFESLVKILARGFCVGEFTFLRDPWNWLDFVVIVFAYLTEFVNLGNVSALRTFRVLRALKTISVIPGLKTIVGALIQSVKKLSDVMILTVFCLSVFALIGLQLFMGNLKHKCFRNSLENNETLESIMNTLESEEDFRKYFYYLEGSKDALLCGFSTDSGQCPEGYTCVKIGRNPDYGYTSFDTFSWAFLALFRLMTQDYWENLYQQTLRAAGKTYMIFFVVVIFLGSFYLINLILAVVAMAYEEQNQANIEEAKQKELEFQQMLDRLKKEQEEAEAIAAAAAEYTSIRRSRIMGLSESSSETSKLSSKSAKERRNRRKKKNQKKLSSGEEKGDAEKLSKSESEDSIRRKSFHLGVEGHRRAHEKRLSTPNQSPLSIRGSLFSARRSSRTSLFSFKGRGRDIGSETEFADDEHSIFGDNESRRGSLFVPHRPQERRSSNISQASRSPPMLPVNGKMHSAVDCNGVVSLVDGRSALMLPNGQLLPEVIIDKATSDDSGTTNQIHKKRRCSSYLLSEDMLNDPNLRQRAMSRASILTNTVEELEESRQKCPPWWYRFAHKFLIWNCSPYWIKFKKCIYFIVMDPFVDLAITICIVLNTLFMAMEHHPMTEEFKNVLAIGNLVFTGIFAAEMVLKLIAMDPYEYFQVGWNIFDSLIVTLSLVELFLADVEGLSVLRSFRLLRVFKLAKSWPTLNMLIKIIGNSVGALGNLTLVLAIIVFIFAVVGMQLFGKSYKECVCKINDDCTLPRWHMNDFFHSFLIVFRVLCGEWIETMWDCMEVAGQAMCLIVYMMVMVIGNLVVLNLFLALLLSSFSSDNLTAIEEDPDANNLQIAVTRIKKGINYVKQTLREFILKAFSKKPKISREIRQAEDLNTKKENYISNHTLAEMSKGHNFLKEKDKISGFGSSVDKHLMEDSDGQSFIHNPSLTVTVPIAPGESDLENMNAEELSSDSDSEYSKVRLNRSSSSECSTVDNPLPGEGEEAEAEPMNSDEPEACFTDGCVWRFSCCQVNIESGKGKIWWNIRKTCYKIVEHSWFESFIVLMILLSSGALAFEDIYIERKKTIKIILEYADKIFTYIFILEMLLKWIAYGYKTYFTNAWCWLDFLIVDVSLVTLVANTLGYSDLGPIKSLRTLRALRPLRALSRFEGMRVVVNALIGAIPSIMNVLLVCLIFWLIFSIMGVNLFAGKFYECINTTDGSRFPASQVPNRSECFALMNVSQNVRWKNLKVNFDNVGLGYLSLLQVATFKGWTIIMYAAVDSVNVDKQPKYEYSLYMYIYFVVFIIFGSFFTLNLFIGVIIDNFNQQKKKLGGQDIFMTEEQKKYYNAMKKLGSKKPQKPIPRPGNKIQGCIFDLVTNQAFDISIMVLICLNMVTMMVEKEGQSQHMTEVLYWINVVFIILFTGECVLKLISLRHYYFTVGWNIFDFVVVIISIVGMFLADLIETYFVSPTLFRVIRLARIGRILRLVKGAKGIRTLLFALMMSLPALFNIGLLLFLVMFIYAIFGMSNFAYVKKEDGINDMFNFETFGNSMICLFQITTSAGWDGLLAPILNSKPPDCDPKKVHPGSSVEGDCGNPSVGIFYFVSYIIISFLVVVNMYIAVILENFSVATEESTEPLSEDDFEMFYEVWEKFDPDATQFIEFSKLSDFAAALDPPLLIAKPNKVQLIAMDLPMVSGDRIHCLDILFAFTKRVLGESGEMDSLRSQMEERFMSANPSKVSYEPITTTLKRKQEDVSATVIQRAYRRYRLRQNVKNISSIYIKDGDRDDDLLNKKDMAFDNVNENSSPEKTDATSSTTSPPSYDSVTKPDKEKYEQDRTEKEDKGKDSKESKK
Method in brief: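 HEK293 cells stably expressing human Nav1.7 were recorded by IonFlux16 automated patch clamp in extracellular solution (pH 7.45, final DMSO ≤0.3%). Peak current was measured after 50 s exposure to each of eight compound concentrations and expressed as percent inhibition relative to pre-compound current.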

[2] = neuropathic pain patients; cited from earlier work

Structure (SMILES)	IC50 [1]	effective for share of the patients [2]
O=S(=O)(Nc1nccs1)c1ccc(C(O)c2cccnc2-c2ccoc2)c(F)c1 (stereo not shown) [Example 155, 3-fluoro-4-((2-(furan-3-yl)pyridin-3-yl)(hydroxy)methyl)-N-(thiazol-2-yl)benzenesulfonamide]	> 0.1 µM	
O=S(=O)(Nc1nccs1)c1ccc(C(O)c2cccnc2-c2ccoc2)cc1 (stereo not shown) [Example 156, 4-((2-(furan-3-yl)pyridin-3-yl)(hydroxy)methyl)-N-(thiazol-2-yl)benzenesulfonamide]	> 0.1 µM	
O=S(=O)(Nc1nccs1)c1ccc(C(O)c2cccnc2-c2ccccc2)c(F)c1 (stereo not shown) [Example 157, 3-fluoro-4-(hydroxy(2-phenylpyridin-3-yl)methyl)-N-(thiazol-2-yl)benzenesulfonamide]	> 0.1 µM	
NCC1(CC(=O)O)CCCCC1 [gabapentin]		60%
